# Patent US20210283198A1, “METHOD FOR TREATING AND/OR PREVENTING COCCIDIOSIS” (priority 2020, published 2021)
# Marks after values point to notes of the source that are not given here. *1 amine or outer side, *2 acyl side, *3 side chain or, on linkers, in order; H or OH if unused. Where a SMILES comes first, the peptide text is derived from it. Bridges are numbered along the chain shown (N, C = ends). [ ]: non-standard residue; d: D form. X1 = CC(C)CCCCCCCCC[C@H](CC(=O)[*:1])O[*:2]
# System: Eimeria tenella oocyst
# Assay: In vitro sporulation of the coccidia oocyst in 2% K2Cr2O7
# Type: cell-based
# Conditions: 100 ppm, 25° C., 10^4 oocysts/mL, mean ± SD (n = 3)
# Method: Intestinal samples from naturally infected broilers were obtained from poultry farms. Un-sporulated oocysts were obtained from the cecal contents of broilers at day 8 post-infection. Oocyst sporulation was conducted in an aqueous solution of 2% potassium dichromate (K2Cr2O7) with or without surfactin standard or the Bacillus licheniformis-fermented product-derived surfactin C-form for 72 h at 25° C. (10^4 oocysts/mL). Sporulated and non-sporulated oocysts were counted and the percentage of sporulation was estimated by counting the number of sporulated oocysts in a total of 100 oocysts by microscopic observation. Second-generation merozoites were collected from ceca at 110 h post-infection from chickens that had been inoculated with 1×10^5 sporulated oocysts per bird. The merozoites (10^4/mL) were treated with or without surfactin standard or the Bacillus licheniformis-fermented product-derived surfactin C-form for 1 h at 37° C. Three groups of merozoites were prepared, including: (1) a control group comprising 10^4/ml merozoites without surfactin; (2) an experimental group comprising 10^4/ml merozoites treated with 100 ppm surfactin standard; and (3) an experimental group comprising 10^4/ml merozoites treated with the 100 ppm Bacillus licheniformis-fermented product-derived surfactin C-form. After incubation, propidium iodide was added to each well and then stained at 37° C. for 30 min in the dark. The stained samples were examined under a confocal laser-scanning microscope (ZEISS LSM800, Jena, Germany). The percentage of death of merozoite was determined by counting the number of dead merozoite in a total of 100 merozoites. The Eimeria sporozoites from vaccine were treated with different surfacitn for 1 h at 37° C. (10^6 sporozoites/mL). The sporozoites were fixed with 2.5% glutaraldehyde in 50 mM potassium phosphate buffer (pH 6.8) overnight at 4° C., and then washed three times with 50 mM potassium phosphate buffer (pH 6.8). Dehydration was performed in different concentrations of ethanol (35-100%) for 10 mM each and the samples were dried in a critical point drier (CPD 030, Bal-Tec AG, Balzers, Liechtenstein). Specimens were coated under vacuum with gold:palladium (60:40) in a sputter coater (Bal-Tec AG, Balzers, Liechtenstein), and examined using a scanning electron microscope (JSM-6300, JEOL Ltd., Tokyo, JAPAN). […]
smiles,measurement,setting,value
"CC(C)CCCCCCCCC[C@@H]1CC(=O)N[C@@H](CCC(=O)O)C(=O)N[C@@H](CC(C)C)C(=O)N[C@H](CC(C)C)C(=O)N[C@@H](C(C)C)C(=O)N[C@@H](CC(=O)O)C(=O)N[C@H](CC(C)C)C(=O)N[C@@H](CC(C)C)C(=O)O1 [surfactin standard, surfactin] (EL[dL]VD[dL]L; linker N-C via X1)",Sporulation of the coccidia oocyst (%),12 h,0%
same,Sporulation of the coccidia oocyst (%),24 h,0%
same,Sporulation of the coccidia oocyst (%),48 h,0^b %
same,Sporulation of the coccidia oocyst (%),72 h,0^b %
